Assay results from patent US12285397B2, “Use of (s)-3-amino-4-(difluoromethylenyl) cyclopent-1-ene-1-carboxylic acid and related compounds, (1S,3S)-3-amino-4-(difluoromethylidene) cyclopentane-1-carboxylic acid and vigabatrin in the treatment of developmental disorders” (Ovid Therapeutics Inc., priority 2018, dated 2025).

Experiments:
Type in all cases: in vivo, mouse
[1] = tested on: Fmr1 KO2 mice; test: Open field repetitive behavior: self grooming, Fmr1 KO2 mice; set-up: Effect on abnormal self grooming phenotype (FIG. 3): dose or concentration left out as unconfirmed
Excerpt: (§1) Mutant fmr1 knockout (KO) mice recapitulate the Fragile X syndrome (FXS) phenotype and represent a preclinical model for assessment of putative drug treatments. In this study three different mice models of FXS were used: Fmr1 KO1 is the original Fmr1 knockout animal that carries an insertion in exon 5. See, e.g., Bakker C E, et al., The Dutch-Belgian Fragile X Consortium, Fmr1 knockout mice: A model to study fragile X mental retardation. Cell. 1994; 78:23-33 It is a protein null, although Fmr1 mRNA is still present. It is backcrossed to the C57/B16 strain. Subsequently, these mice were bred into different background strains, such as the FVB inbred mouse strain. Fmr1 KO2 is a null allele at Fmr1 generated by deletion of the promoter and first exon of Fmr1. See, Mientjes, E J et al., The generation of a conditional Fmr1 knock out mouse model to study Fmrp function in vivo. Neurobiology of Disease (2006) 21(3): 549-555. It is both protein and mRNA null. Backcrossed to the C57/B16 strain. Genotyping was accomplished using TransnetXY Automated Genotyping (http://www.transnetyx.com/). TRANSNETYX, INC., 8110 Cordova Rd. Suite 119, Cordova, TN 38016, USA.
(§2) The mice were housed in plastic cages (35×30×12 cm), 5 in each and habituated to the animal facilities for at least a week before test. The room temperature (21±2° C.), relative humidity (55±5%), a 12-h light-dark cycle (lights on 7 a.m.-7 p.m.) and air exchange (16 times per h) were automatically controlled. The animals had free access to commercial food pellets and water. Testing was conducted during the light phase. Testing was conducted on Fmr1 knockout mice and their wild-type (WT) littermates. Ten mice per treatment group, 14 weeks of age, were used for behavioral experiments. Experiments were conducted in line with the requirements of the UK Animals (Scientific Procedures) Act, 1986.
(§3) Oral dosing was performed by using 1.5-in. curved, 20-gauge, stainless steel feeding needles with a 2.25-mm ball (Braintree Scientific, Braintree, MA). Each gavage treatment was given in 0.5% methyl cellulose (Methyl Cellulose M0512, Sigma-Aldrich, St Louis, MO) used as vehicle with or without treatment compounds. The same veterinarian, blinded to the treatment groups, performed the procedure, and documented animal reactions to oral gavage. Reactions considered to indicate stress were defined as excessive struggling during gavage or abnormal behavior after gavage (labored breathing, frozen stance, exaggerated jumping, shuddering, and hunched posture).
(§4) For experiments all mice were tested once in the same apparatus. Prior to testing, mice not in the study were placed in the apparatus for some minutes before the experiment. The apparatus was then cleaned with moist and dry tissues before testing each mouse. The aim was to create a low but constant background mouse odor for all experimental subjects. All experiments were conducted with the experimenters blind to genotype and drug treatment during all testing and data analysis. Separate investigators prepared and coded dosing solutions, allocated the mice to the study treatment groups, dosed the animals, and collected the behavioral data. Data were analyzed by one-way analysis of variance (ANOVA) followed by post-hoc comparisons where appropriate using Tukey's Multiple Comparison Test. Data are represented as the mean and standard error of the mean (SEM).
2. Open Field Repetitive Behaviors (stereotypies: anticlockwise circling (aka counter revolutions) (CCW) and self grooming). Fmr1 KO2 mice display the autism-like phenotypes of repetitive behaviors like CCW, self grooming and stereotypy that typically involves behaviors such as head bobbing. […]

[2] = tested on: Fmr1 KO1 mice; test: Open field repetitive behavior: self grooming, Fmr1 KO1 mice
Excerpt: as §1, §2, §3, §4
2. Open Field Repetitive Behaviors (RB) (stereotypies: anticlockwise circling and self grooming). Fmr1 KO1 mice display the autism-like phenotypes of repetitive behaviors like counter revolutions (CCW), self grooming and stereotypy that typically involves behaviors such as head bobbing. […]

[3] = tested on: Fmr1 KO1 mice; test: Tests of daily living (nesting), Fmr1 KO1 mice
Excerpt: as §1, §2, §3, §4
3. Tests of daily living (Nesting): FIG. 11 is a bar graph illustrating nest building quality by wild-type mice administered 0.5% methyl cellulose vehicle, Fmr1 KO1 mice administered 0.5% methyl cellulose, Fmr1 KO1 mice administered (S)-3-amino-4-(difluoromethylenyl) cyclopent-1-ene-1-carboxylic acid 0.01 mg/kg, Fmr1 KO1 mice administered (S)-3-amino-4-(difluoromethylenyl) cyclopent-1-ene-1-carboxylic acid 0.05 mg/kg, and Fmr1 KO1 mice administered (S)-3-amino-4-(difluoromethylenyl) cyclopent-1-ene-1-carboxylic acid 0.1 mg/kg.

[4] = tested on: Fmr1 KO1 transgenic mice in an FVB background; test: Audiogenic seizures (AGS), Fmr1 KO1 mice in FVB background; settings: for Incidence / Respiratory arrest / Seizure / Wild running: audio stimulus 60 seconds at 124 db
Experimental: 4. Audiogenic Seizures (AGS) are reflex seizures generated by loud noises in genetically predisposed mice. The Fmr1 KO1 mice display audiogenic seizures depending on age and background strain, the Fmr1 KO1 mouse on the FVB background is characterized by an increased AGS susceptibility at all ages and is considered a good animal model for epilepsy. The effect of (S)-3-amino-4-(difluoromethylenyl) cyclopent-1-ene-1-carboxylic acid was tested on AGS Fmr1 KO1 transgenic mice in an FVB background. Observable criteria are: 1. normal behavior, 2. wild running, 3. seizure, and 4. respiratory arrest.
(S)-3-amino-4-(difluoromethylenyl) cyclopent-1-ene-1-carboxylic acid was administered to Fmr1 KO1 mice, males, age 2 months in the following amounts: 0.01 mg/kg, 0.05 mg/kg, and 0.1 mg/kg. Positive controls were administered 2-Methyl-6-(phenylethynyl)pyridine (MPEP), a mGluR5 antagonist, 30 mg/kg by i.p. and tested 20 minutes after injection. Audio stimulus was administered continuously for 60 seconds at 124 db.

Compound: N[C@H]1C=C(C(=O)O)CC1=C(F)F [Compound, (S)-3-Amino-4-(difluoromethylenyl)cyclopent-1-ene-1-carboxylic acid]
- Effect on abnormal self grooming phenotype (FIG. 3) [1]: rescued
- Time spent grooming (self grooming), WT-Veh vs. KO2-Compound: Significant? ([1]; 0.01 mg/Kg PO QD seven days): Yes
- Time spent grooming (self grooming), WT-Veh vs. KO2-Compound: Significant? ([1]; 0.05 mg/Kg PO QD seven days): No
- Time spent grooming (self grooming), WT-Veh vs. KO2-Compound: Summary ([1]; 0.05 mg/Kg PO QD seven days): ns
- Time spent grooming (self grooming), WT-Veh vs. KO2-Compound: Significant? ([1]; 0.1 mg/Kg PO QD seven days): No
- Time spent grooming (self grooming), WT-Veh vs. KO2-Compound: Summary ([1]; 0.1 mg/Kg PO QD seven days): ns
- Self grooming (time spent grooming), WT-Veh vs. KO1-Compound: Significant? ([2]; 0.01 mg/Kg PO QD seven days): Yes
- Self grooming (time spent grooming), WT-Veh vs. KO1-Compound: Significant? ([2]; 0.05 mg/Kg PO QD seven days): No
- Self grooming (time spent grooming), WT-Veh vs. KO1-Compound: Summary ([2]; 0.05 mg/Kg PO QD seven days): ns
- Self grooming (time spent grooming), WT-Veh vs. KO1-Compound: Significant? ([2]; 0.1 mg/Kg PO QD seven days): No
- Self grooming (time spent grooming), WT-Veh vs. KO1-Compound: Summary ([2]; 0.1 mg/Kg PO QD seven days): ns
- Time self-grooming compared with WT+veh (FIG. 9) ([2]; 0.05 and 0.1 mg/Kg): did not differ from WT+veh
- Nesting, WT-Veh vs. KO1-Compound: Significant? ([3]; 0.01 mg/Kg PO QD seven days): Yes
- Nesting, WT-Veh vs. KO1-Compound: Significant? ([3]; 0.05 mg/Kg PO QD seven days): No
- Nesting, WT-Veh vs. KO1-Compound: Summary ([3]; 0.05 mg/Kg PO QD seven days): ns
- Nesting, WT-Veh vs. KO1-Compound: Significant? ([3]; 0.1 mg/Kg PO QD seven days): No
- Nesting, WT-Veh vs. KO1-Compound: Summary ([3]; 0.1 mg/Kg PO QD seven days): ns
- Effect on nesting behavior (FIG. 11) ([3]; 0.05 and 0.1 mg/Kg): rescues poor nesting behavior
- Incidence ([4]; 0.01 mg/kg): 100%
- Respiratory arrest ([4]; 0.01 mg/kg): 7/10
- Seizure ([4]; 0.01 mg/kg): 10/10
- Wild running ([4]; 0.01 mg/kg): 10/10
- Incidence ([4]; 0.05 mg/kg): 100%
- Respiratory arrest ([4]; 0.05 mg/kg): 5/10
- Seizure ([4]; 0.05 mg/kg): 8/10
- Wild running ([4]; 0.05 mg/kg): 10/10
- Audiogenic seizure susceptibility reduced to ([4]; 0.1 mg/Kg, Fmr1 KO1 mice (FVB background)): 40%
- Incidence ([4]; 0.1 mg/kg): 40%
- Respiratory arrest ([4]; 0.1 mg/kg): 4/10
- Seizure ([4]; 0.1 mg/kg): 5/10
- Wild running ([4]; 0.1 mg/kg): 4/10
